Results: patent US10071975B2, “Macrocyclic amidinourea derivatives, methods of preparation and uses thereof as chitinase inhibitors” (CYGNET BIOSCIENCES B.V., priority 2013, dated 2018)
Values after ≈ are worked out from the molar mass of the structure shown.

Columns and labels:
[1] = molecular target: chitinase enzyme extracted from Trichoderma viride; assay: Chitinase inhibition assay (NP-GlcNAc substrate); assay type: biochemical
Procedure: Chitinase inhibition assays were conducted against an example of the GH18 family of chitinases, i.e the chitinase enzyme extracted from Trichoderma viride. This enzyme has an high degree of identity compared to chitinase 4 of Candida albicans, and is commercially available from Sigma-Aldrich (catalogue ID: C8241).
The substrate used was the NP-GlcNAc (Sigma-Aldrich, catalogue ID: N9376) dissolved in MES 50 mM at pH6.0; the final concentration was 250 μM. The enzyme was resuspended at 0.11 mg/ml in MES 50 mM at pH 6.0, with a final concentration for the assay of 73 nM diluting with MES 50 mM and BSA 20 μg/ml at pH 6.0. A stock solution of the inhibitors was prepared at 50 mM in DMSO 100%.
The mixture with the inhibitor at various concentrations and the enzyme was prepared directly into the reading plate and left to incubate at room temperature for 20 minutes or three hours. At the end of the incubation times, the substrate was added and the reading was conducted by recording the values up to a maximum time of 10 minutes. The substrate concentration was measured by reading UV absorption at 300 nm (εM^300: 11100), while, the product of hydrolysis were measured at 400 nm (ΔεM^400: 2120). Both IC50 and Ki can be calculated.

C. albicans = assay: Antimicrobial susceptibility testing (microdilution MIC90), C. albicans strains; assay type: cell-based; conditions: Candida albicans; C. albicans (22 strains tested); 24 h, visually and spectrophotometrically
Procedure: (§1) Sterile plastic microtitration plates containing flat-bottomed wells were used. The plates contained serial dilution of the antifungal agents with a volume of assay medium of 100 μL/well. Two drug-free medium wells were used as sterility and growth controls. The trays were inoculated with 100 μL/well of the final inoculum, with the exception of sterility control wells. […] The microtitration plates were incubated at 37° C. for 24 h. The minimal inhibitory concentrations (MICs) were determined at 24 h both visually and spectrophotometrically measuring the turbidity at 595 nm with a Varian model 1475 spectrophotometer. Results of biological tests are shown in Table 2, biological data are reported as MIC90 that is the minimum concentration required to inhibit the growth of at least the 90% of the strains tested for each species.

C. krusei = assay: Antimicrobial susceptibility testing (microdilution MIC90), C. krusei strains; assay type: cell-based, Candida krusei; conditions: Pichia kudriavzevii; C. krusei (13 strains tested); 24 h; read-out: MIC90
Procedure: as §1

C. tropicalis = assay: Antimicrobial susceptibility testing (microdilution MIC90), C. tropicalis strains; assay type: cell-based; conditions: Candida tropicalis; C. tropicalis (11 strains tested); 24 h
Procedure: as §1

C. guilliermondii = assay: Antimicrobial susceptibility testing (microdilution MIC90), C. guilliermondii strains; assay type: cell-based, Candida guilliermondii; conditions: Meyerozyma guilliermondii; C. guilliermondii (10 strains tested); 24 h
Procedure: as §1

C. kefyr = assay: Antimicrobial susceptibility testing (microdilution MIC90), C. kefyr strains; assay type: cell-based, Candida kefyr; conditions: Kluyveromyces marxianus; C. kefyr (10 strains tested); 24 h
Procedure: as §1

C. glabrata = assay: Antimicrobial susceptibility testing (microdilution MIC90), C. glabrata strains; assay type: cell-based, Candida glabrata; conditions: Nakaseomyces glabratus; C. glabrata (26 strains tested); 24 h
Procedure: as §1

C. parapsilosis = assay: Antimicrobial susceptibility testing (microdilution MIC90), C. parapsilosis strains; assay type: cell-based, Candida parapsilosis; conditions: Lodderomyces parapsilosis; C. parapsilosis (24 strains tested); 24 h
Procedure: as §1

[2] = Enz.-inhib. incubation time 3 h
[3] = Enz.-inhib. incubation time 20 min

Row | IC50 [1, 2] | Ki [1, 2] | MIC90 (C. albicans) | MIC90 (C. krusei) | MIC90 (C. tropicalis) | MIC90 (C. guilliermondii) | MIC90 (C. kefyr) | MIC90 (C. glabrata) | MIC90 (C. parapsilosis) | IC50 [1, 3] | Ki [1, 3] | Structure (SMILES)
1 | 111 µM | 35.8 µM | – | – | – | – | – | – | – | – | – | C/C=C/CNC(=N)NCCCCCCN1CCCCCCCCNC(=N)NC1=O [Compound 36, 1-[(E)-but-2-enyl]-3-[6-(4-imino-2-oxo-1,3,5-triazacyclotridec-1-yl)hexyl]guanidine]
2 | – | – | 32 µg/mL (≈ 48.7 µM) | 128 µg/mL (≈ 195 µM) | 64 µg/mL (≈ 97.4 µM) | 32 µg/mL (≈ 48.7 µM) | 64 µg/mL (≈ 97.4 µM) | 64 µg/mL (≈ 97.4 µM) | 32 µg/mL (≈ 48.7 µM) | – | – | C/C=C/CNC(=N)NCCCCCCCCN1CCCCCCOc2ccccc2C(c2cn(-c3ccccc3)nn2)NC(=N)NC1=O (centres unmarked) [Example 21]
3 | – | – | 16 µg/mL (≈ 33.4 µM) | 32 µg/mL (≈ 66.7 µM) | 16 µg/mL (≈ 33.4 µM) | 8 µg/mL (≈ 16.7 µM) | 16 µg/mL (≈ 33.4 µM) | 32 µg/mL (≈ 66.7 µM) | 8 µg/mL (≈ 16.7 µM) | – | – | C/C=C/CNC(=N)NCCCCCCCCN1CCCCCCOC(=O)CCNC(=N)NC1=O [Example 20, 1-[(E)-but-2-enyl]-3-[8-(6-imino-2,8-dioxo-1-oxa-5,7,9-triazacyclopentadec-9-yl)octyl]guanidine]
4 | 140 µM | 45.3 µM | – | – | – | – | – | – | – | 508 µM | 164 µM | CCNC(=N)NCCCCCCN1CCCCCCCCNC(=N)NC1=O [Compound 38, 1-ethyl-3-[6-(4-imino-2-oxo-1,3,5-triazacyclotridec-1-yl)hexyl]guanidine]
5 | 108 µM | 34.8 µM | – | – | – | – | – | – | – | 276 µM | 81.4 µM | C=C(C)CNC(=N)NCCCCCCN1CCCCCCCCNC(=N)NC1=O [Compound 37, 1-[6-(4-imino-2-oxo-1,3,5-triazacyclotridec-1-yl)hexyl]-3-(2-methylprop-2-enyl)guanidine]
6 | 97 µM | 31.3 µM | – | – | – | – | – | – | – | 170 µM | 55 µM | C#CCNC(=N)NCCCCCCN1CCCCCCCCNC(=N)NC1=O [Compound 39, 1-[6-(4-imino-2-oxo-1,3,5-triazacyclotridec-1-yl)hexyl]-3-prop-2-ynylguanidine]
7 | – | – | 256 µg/mL (≈ 456 µM) | 256 µg/mL (≈ 456 µM) | 256 µg/mL (≈ 456 µM) | 256 µg/mL (≈ 456 µM) | 256 µg/mL (≈ 456 µM) | 128 µg/mL (≈ 228 µM) | 256 µg/mL (≈ 456 µM) | – | – | C/C=C/CNC(=N)NCCCCCCCCN1CCCc2cccc(c2)COc2ccccc2CNC(=N)NC1=O [Example 23, 1-[(2E)-but-2-en-1-yl]-3-(8-{12-imino-14-oxo-3-oxa-11,13,15-triazatricyclo[17.3.1.0^4,9]tricosa-1(23),4(9),5,7,19,21-hexaen-15-yl}octyl)guanidine]
